Laboratory results taken from US20250206729A1, “DUAL RAF AND TUBULIN INHIBITORS AND METHODS OF USE THEREOF” (Deciphera Pharmaceuticals, LLC, priority 2023, published 2025).
Like-named read-outs stand apart in the source and are kept apart here.

How the values were obtained:
[1] = system: HPAF-II cells; assay: HPAF-II cell proliferation assay; assay type: cell-based; settings: Homo sapiens
[2] = system: MiaPaca-2 cells; assay: MiaPaca-2 cell proliferation assay; assay type: cell-based; settings: Homo sapiens, MIA PaCa-2
[3] = system: tubulin polymerization in HCT-116 cells; assay: Cellular tubulin polymerization assay (HCT-116 cells); assay type: cell-based
Method: HCT-116 cells (catalog #CCL-247) are obtained from the American Type Culture Collect (ATCC, Manassas, VA). Briefly, cells are grown in McCoy's 5A supplemented with 10% characterized fetal bovine serum (Invitrogen, Carlsbad, CA) and 1% Penicillin/Streptomycin/L-Glutamine at 37° C., 5% CO2, and 95% humidity. Cells are expanded until reaching 70-95% confluency at which point they are sub-cultured or harvested for assay use. 450000 cells are added per well in 1500 μL complete growth medium in a tissue culture treated, 12-well plate. Plates are incubated for 18 to 24 h at 37° C., 5% CO2, and 95% humidity. At the end of the incubation, 2000 μL of base culture media is added to each well, followed by a serial dilution of compound. Plates are incubated for an additional 1 h at 37° C., 5% CO2, and 95% humidity. Lysates are generated by the addition of 100 μL Lysis and Microtubule Stabilization Buffer 1 (LMSO1, Cytoskeleton Inc, Denver, CO) supplemented with GTP (BST06, Cytoskeleton Inc), ATP (BSA04, Cytoskeleton Inc), and Protease Inhibitor Cocktail Stock (PIC02, Cytoskeleton Inc). Cells are scraped off wells using a rubber cell scraper and collected in a clean 96-well plate. Lysates are centrifuged at 1000× g, 37° C. for 10 min and supernatant fraction is placed into an additional 96-well plate. The remaining pellet fraction is reconstituted in 100 μL LMS01 buffer and sonicated for 10 min. Pellet and Supernatant fractions are probed for α-tubulin via western blot analysis on the Jess System or equivalent (Bio-techne, Minneapolis, MN). Data is analyzed using Prism software (Graphpad, San Diego, CA) to calculate IC50 values.

[4] = system: HCT-116 cells; assay: HCT-116 cell proliferation assay; assay type: cell-based; settings: Homo sapiens
[5] = target: T1, B-Raf kinase (SEQ ID NO: 1) (Homo sapiens, UniProt P15056); assay: Biochemical assay for B-Raf (coupled pyruvate kinase/lactate dehydrogenase)
T1 construct: GST (N); purchased Sigma

[6] = target: T2, C-Raf kinase (SEQ ID NO: 2) (Homo sapiens, UniProt P04049, Y340D/Y341D); assay: Biochemical assay for C-Raf (coupled pyruvate kinase/lactate dehydrogenase)
T2 construct: C-Raf residues 306-end; Y340D, Y341D with N-; GST (N); purchased Sigma

[7] = system: Pa16c cells; assay: Pa16c cell proliferation assay; assay type: cell-based; settings: 67 to 72 h incubation, resazurin; read-out: Pa16c (inhibition of cell proliferation, IC50)
[8] = target: Porcine Brain Tubulin (Sus scrofa, UniProt P02550+P02554); assay: Biochemical tubulin polymerization assay; settings: maximum velocity of polymerization, FIG. 1; read-out: IC50 of inhibition of tubulin polymerization, biochemical tubulin assay
[9] = Table 4, mutant KRAS pancreatic cancer cell line, anti-proliferative, read-out: HPAF-II
[10] = Table 4, mutant KRAS pancreatic cancer cell line, anti-proliferative, read-out: MiaPaca-2
[11] = Table 4, HCT-116 cells, read-out: Tubulin Cellular
[12] = Table 4, mutant KRAS colorectal cancer cell line, anti-proliferative, read-out: HCT-116
[13] = HPAF-II, 115 to 120 h incubation, resazurin, read-out: HPAF-II (inhibition of cell proliferation, IC50)
[14] = Table 3, mutant KRAS pancreatic cancer cell line, anti-proliferative, read-out: HPAF-II
[15] = 67-72 h incubation, resazurin, read-out: MiaPaca-2 (inhibition of cell proliferation, IC50)
[16] = Table 3, mutant KRAS pancreatic cancer cell line, anti-proliferative, read-out: MiaPaca-2
[17] = Table 3, HCT-116 cells, read-out: Tubulin Cellular
[18] = HCT-116, 67 to 72 h incubation, resazurin, read-out: HCT-116 (inhibition of cell proliferation, IC50)
[19] = Table 3, mutant KRAS colorectal cancer cell line, anti-proliferative, read-out: HCT-116
[20] = 1 mM ATP, read-out: BRAF (inhibition of biochemical activity, IC50)
[21] = 1 mM ATP, read-out: CRAF (inhibition of biochemical activity, IC50)

T1 sequence (P15056 416-766): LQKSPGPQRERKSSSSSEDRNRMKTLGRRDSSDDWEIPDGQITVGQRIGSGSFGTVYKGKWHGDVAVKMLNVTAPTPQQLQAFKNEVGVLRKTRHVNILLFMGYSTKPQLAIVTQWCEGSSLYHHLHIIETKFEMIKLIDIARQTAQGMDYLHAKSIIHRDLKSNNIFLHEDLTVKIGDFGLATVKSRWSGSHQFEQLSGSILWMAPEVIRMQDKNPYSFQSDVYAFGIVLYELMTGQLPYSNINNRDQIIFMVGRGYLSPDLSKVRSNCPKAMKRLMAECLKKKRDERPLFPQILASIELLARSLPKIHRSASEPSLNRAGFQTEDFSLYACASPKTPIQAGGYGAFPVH
T2 sequence (P04049 307-648 Y340D/Y341D): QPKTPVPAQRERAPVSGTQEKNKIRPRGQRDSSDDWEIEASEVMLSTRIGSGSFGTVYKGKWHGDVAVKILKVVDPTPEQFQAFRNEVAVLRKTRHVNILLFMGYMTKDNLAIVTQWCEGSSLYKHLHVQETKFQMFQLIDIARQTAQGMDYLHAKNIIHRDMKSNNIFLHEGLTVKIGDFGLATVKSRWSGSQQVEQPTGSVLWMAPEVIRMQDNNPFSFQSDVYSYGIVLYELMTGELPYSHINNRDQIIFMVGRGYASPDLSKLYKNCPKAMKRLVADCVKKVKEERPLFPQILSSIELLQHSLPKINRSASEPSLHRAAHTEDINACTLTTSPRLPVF
Chain of Porcine Brain Tubulin (P02554 whole entry): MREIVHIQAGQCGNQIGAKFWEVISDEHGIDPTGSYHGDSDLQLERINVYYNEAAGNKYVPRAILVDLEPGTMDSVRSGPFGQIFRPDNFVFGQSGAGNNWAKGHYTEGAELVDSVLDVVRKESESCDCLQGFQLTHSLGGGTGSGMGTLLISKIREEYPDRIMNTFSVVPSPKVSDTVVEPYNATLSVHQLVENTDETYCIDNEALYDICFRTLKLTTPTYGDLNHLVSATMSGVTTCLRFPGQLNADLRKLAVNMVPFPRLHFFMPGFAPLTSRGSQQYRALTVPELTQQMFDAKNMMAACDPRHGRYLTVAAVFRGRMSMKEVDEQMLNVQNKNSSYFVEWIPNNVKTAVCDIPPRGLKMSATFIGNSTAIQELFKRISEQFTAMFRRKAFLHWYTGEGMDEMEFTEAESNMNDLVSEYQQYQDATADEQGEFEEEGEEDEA
Chain of Porcine Brain Tubulin (P02550 whole entry): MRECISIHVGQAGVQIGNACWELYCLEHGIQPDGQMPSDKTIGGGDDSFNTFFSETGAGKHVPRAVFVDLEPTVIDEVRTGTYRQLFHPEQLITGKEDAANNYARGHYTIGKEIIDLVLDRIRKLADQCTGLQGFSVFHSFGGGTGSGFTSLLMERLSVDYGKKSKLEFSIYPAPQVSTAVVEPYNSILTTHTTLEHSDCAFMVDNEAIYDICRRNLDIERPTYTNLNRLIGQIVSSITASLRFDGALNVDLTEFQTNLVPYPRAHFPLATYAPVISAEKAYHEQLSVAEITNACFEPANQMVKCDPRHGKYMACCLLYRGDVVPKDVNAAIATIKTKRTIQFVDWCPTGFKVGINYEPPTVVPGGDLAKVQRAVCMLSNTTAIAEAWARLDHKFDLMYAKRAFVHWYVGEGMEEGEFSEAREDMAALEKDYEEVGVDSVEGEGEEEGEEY

| SMILES | IC50 [1, 9] [µM] | IC50 [2, 10] [µM] | IC50 [3, 11] [µM] | IC50 [4, 12] [µM] | IC50 ([5]; Table 4, read-out: BRAF) [µM] | IC50 ([6]; Table 4, read-out: CRAF) [µM] | IC50 [1, 13] [µM] | IC50 [1, 14] [µM] | IC50 [7] [µM] | IC50 [2, 15] [µM] | IC50 [2, 16] [µM] | IC50 [3, 17] [µM] | IC50 [4, 18] [µM] | IC50 [4, 19] [µM] | IC50 [5, 20] [µM] | IC50 ([5]; Table 3, read-out: BRAF) [µM] | IC50 [6, 21] [µM] | IC50 ([6]; Table 3, read-out: CRAF) [µM] | IC50 [8] [µM] | IC50 ([3]; ratio of pellet to supernatant vs DMSO control, HCT-116, FIG. 2, read-out: IC50 of inhibition of tubulin polymerization, cellular tubulin assay) [µM] |
| --- | --- | --- | --- | --- | --- | --- | --- | --- | --- | --- | --- | --- | --- | --- | --- | --- | --- | --- | --- | --- |
| Cc1ccc2c(Nc3cccc(Cl)c3F)nccc2c1NC(=O)c1csc2c(N)ncnc12 [Belvarafenib, reference compound] | 1 to 10 | 1 to 10 | 1 to 10 | 0.5 to 1 | < 0.1 | < 0.1 | – | – | – | – | – | – | – | – | – | – | – | – | – | – |
| Cc1ccc(NC(=O)c2cc(C(F)(F)F)cnn2)cc1-c1cc(OCCO)nc(N2CCOCC2)c1 [Example 6] | – | – | – | – | – | – | < 0.1 | < 0.1 | < 0.1 | < 0.1 | < 0.1 | < 0.1 | < 0.1 | < 0.1 | < 0.1 | < 0.1 | < 0.1 | < 0.1 | – | – |
| Cc1ccc(NC(=O)c2cc(C(C)C)cnn2)cc1-c1cc(N[C@H](C)CO)nc(N2CCOCC2)c1 [Example 14] | – | – | – | – | – | – | 0.1 to 0.5 | 0.1 to 0.5 | 1 to 10 | 0.1 to 0.5 | 0.1 to 0.5 | < 0.1 | 0.1 to 0.5 | 0.1 to 0.5 | < 0.1 | < 0.1 | < 0.1 | < 0.1 | – | – |
| Cc1ccc(NC(=O)c2cc(C(F)(F)F)cnn2)cc1-c1cc(N[C@H](C)CO)nc(N2CCOCC2)c1 [Example 19] | – | – | – | – | – | – | < 0.1 | < 0.1 | < 0.1 | < 0.1 | < 0.1 | < 0.1 | < 0.1 | < 0.1 | < 0.1 | < 0.1 | < 0.1 | < 0.1 | – | – |
| Cc1ccc(NC(=O)c2cc(C(F)(F)F)cnn2)cc1-c1cncc(N2CCOCC2)c1 [Example 27] | – | – | – | – | – | – | 0.1 to 0.5 | 0.1 to 0.5 | 0.1 to 0.5 | < 0.1 | < 0.1 | 0.1 to 0.5 | 0.1 to 0.5 | 0.1 to 0.5 | 0.1 to 0.5 | 0.1 to 0.5 | < 0.1 | < 0.1 | – | – |
| Cc1ccc(NC(=O)c2cc(C(F)(F)F)cnn2)cc1-c1ccnc(N2CCOCC2)n1 [Example 29] | – | – | – | – | – | – | 0.1 to 0.5 | 0.1 to 0.5 | 0.1 to 0.5 | < 0.1 | < 0.1 | < 0.1 | 0.1 to 0.5 | 0.1 to 0.5 | 1 to 10 | 1 to 10 | 1 to 10 | 1 to 10 | – | – |
| Cc1ccc(NC(=O)c2cc(C(C)(C)F)cnn2)cc1-c1cc(OCCO)nc(N2CCOCC2)c1 [Example 34] | – | – | – | – | – | – | < 0.1 | < 0.1 | < 0.1 | < 0.1 | < 0.1 | 0.1 to 0.5 | < 0.1 | < 0.1 | < 0.1 | < 0.1 | < 0.1 | < 0.1 | – | – |
| Cc1ccc(NC(=O)c2cc(C3CC3)cnn2)cc1-c1cc(OCCO)nc(N2CCOCC2)c1 [Example 37] | – | – | – | – | – | – | < 0.1 | < 0.1 | < 0.1 | < 0.1 | < 0.1 | < 0.1 | < 0.1 | < 0.1 | < 0.1 | < 0.1 | < 0.1 | < 0.1 | – | – |
| Cc1ccc(NC(=O)c2cc(C(F)(F)F)cnn2)cc1-c1cc(N2CCOCC2)nc(OCCO)n1 [Example 44] | – | – | – | – | – | – | < 0.1 | < 0.1 | < 0.1 | < 0.1 | < 0.1 | 0.1 to 0.5 | < 0.1 | < 0.1 | 0.1 to 0.5 | 0.1 to 0.5 | 0.1 to 0.5 | 0.1 to 0.5 | – | – |
| Cc1ccc(NC(=O)c2cc(C3CCC3)cnn2)cc1-c1cc(N[C@H](C)CO)nc(N2CCOCC2)c1 [Example 48] | – | – | – | – | – | – | 0.5 to 1 | 0.5 to 1 | < 0.1 | < 0.1 | < 0.1 | < 0.1 | < 0.1 | < 0.1 | < 0.1 | < 0.1 | < 0.1 | < 0.1 | – | – |
| Cc1ccc(NC(=O)c2cc(C(F)(F)F)cnn2)cc1-c1nc(N[C@H](C)CO)cc(N2CCOCC2)n1 [Example 49] | – | – | – | – | – | – | 0.1 to 0.5 | 0.1 to 0.5 | 0.1 to 0.5 | 0.1 to 0.5 | 0.1 to 0.5 | 0.1 to 0.5 | 0.1 to 0.5 | 0.1 to 0.5 | 1 to 10 | 1 to 10 | 1 to 10 | 1 to 10 | – | – |
| Cc1ccc(NC(=O)c2cc(C(F)(F)F)cnn2)cc1-c1ccnc(N2CC3CCC(C2)O3)c1 [Example 83] | – | – | – | – | – | – | < 0.1 | < 0.1 | < 0.1 | < 0.1 | < 0.1 | < 0.1 | < 0.1 | < 0.1 | < 0.1 | < 0.1 | < 0.1 | < 0.1 | – | – |
| Cc1ccc(NC(=O)N2CC[C@@H](CC(F)(F)F)C2)cc1-c1cc(N[C@H](C)CO)nc(N2CCOCC2)c1 [Exarafenib, reference compound] | 1 to 10 | 1 to 10 | 1 to 10 | 0.5 to 1 | – | – | – | – | – | – | – | – | – | – | – | – | – | – | – | – |
| Cc1ccc(NC(=O)c2ccnc(C(F)(F)F)c2)cc1-c1cc(OCCO)nc(N2CCOCC2)c1 [Naporafenib, reference compound] | 1 to 10 | 1 to 10 | 1 to 10 | 1 to 10 | < 0.1 | < 0.1 | – | – | – | – | – | – | – | – | – | – | – | – | – | – |
| C[C@@H](NC(=O)c1ncnc(N)c1Cl)c1ncc(C(=O)Nc2cc(C(F)(F)F)c(Cl)cn2)s1 [Tovorafenib, reference compound] | 1 to 10 | 1 to 10 | 1 to 10 | 1 to 10 | – | – | – | – | – | – | – | – | – | – | – | – | – | – | – | – |
| CC(C)(C)c1[nH]cnc1/C=c1\[nH]c(=O)/c(=C/c2ccccc2)[nH]c1=O [plinabulin, reference compound] | – | – | – | – | – | – | – | – | – | – | – | – | – | – | – | – | – | – | 2.7 | 0.005 |
